According to patent US5658880A, “Sialic acid/fucose based medicaments” (Glycomed Incorporated, priority 1994, dated 1997):

Key:
[1] = test system: neutrophil migration into the peritoneum; assay: Murine thioglycollate induced peritonitis: neutrophil migration to the peritoneal cavity; type: in vivo, mouse (Swiss Webster)
From the text: The efficaciousness of 7 and 10 was shown using a murine thioglycollate induced peritonitis model. The assay materials and methods are known in the art, or are generally described by Lewinsohn, D. et al., J. Immun., 138:4313-4321 (1987), or Watson, S. et al., Nature 349:164-166 (1991). This assay measures the ability of the compounds to inhibit neutrophil migration to the peritoneal cavity, the migration being initiated by the presence of thioglycollate in the peritoneal cavity. Thioglycollate is a known and effective inflammatory agent that causes neutrophil migration into the mouse peritoneum when it is administered intraperitoneally. Lewinsohn, D. et al., J. Immun. (1987) 138:4313-4321. Briefly, female Swiss Webster mice weighing about 25 grams were injected in the tail vein with 200 μl of phosphate buffered saline (PBS) with or without the appropriate compound. The pH of the solutions was adjusted to neutrality by the addition of either NaOH or HCL and sterilized by filtration through a 0.2 μ filter. Immediately following injection with the appropriate compound or PBS, the mice were injected intraperitoneally with 1 ml of thioglycollate medium prepared as described by the manufacturer, BBL. Three hours following injection of the thioglycollate solution the mice were sacrificed by CO2 asphyxiation, and the number of cells in the peritoneum removed by lavage with 5 ml of heparinized (5 U/ml) 0.9% sodium chloride solution containing 0.1% bovine serum albumin. Cell number was determined using a Coulter Counter. The cells were prepared for counting by diluting the lavage fluid with 1:50 of a commercial physiological isotonic solution, Isoton II, and the cells lysed by adding S/P Lysing and Hemoglobin Reagent (1:100 final dilution). Cell nuclei were counted in a sized window with lower and upper limits set at 3.9 and 5.7 μm, respectively.

L-selectin = assay: ELISA: inhibition of L-selectin-IgG chimera binding to 2,3 sLe^x glycolipid; design: species or system human
From the text: (§1) An ELISA assay is preferably used that employs recombinant fusion proteins composed of extracellular portions of the human selectins joined to human immunoglobulin heavy chain CH3, CH2, and hinge regions. See, for example, Walz et al., Science (1990) 250:1132; Aruffo et al., Cell (1991) 67:35; Aruffo et al., Proc. Natl. Acad. Sci. USA. (1992) 89:2292. The assay is well known in the art, and generally consists of the following three steps:
(§2) I. 2,3 sLe^x glycolipid (25 picomole/well) was transferred into microtiter wells as solutions and then evaporated off. Excess, which remained unattached, was washed off with water. The wells were then blocked with 5% BSA at room temperature for an hour and then washed with PBS containing 1 mM calcium.
(§3) II. Preparation of "multivalent" receptor of the Selectin-lgG chimera was carried out by combining the respective chimera (1 μg/mL) with biotin labelled goat F(ab')2 anti-human IgG (Fc specific) and streptavidin-alkaline phosphatase diluted 1:1000 in 1% BSA-PBS (1 mM calcium) and incubating at 37° C. for 15 min. This allowed the soluble multivalent receptor complex to form. III. Potential inhibitors such as the compounds of formula I or II were allowed to react with the soluble receptor at 37° C. for 45 min. This test assumes that optimal binding, between the soluble phase receptor complex and the inhibitor (non natural ligand), would have occurred within this time frame. This solution was then placed in the microtiter wells that were prepared in step I. The plate was incubated at 37° C. for 45 minutes to allow the soluble receptor to bind to its natural ligand. In the presence of a strong inhibitor only a few receptors should be free to bind to the microtiter plate coated with the natural ligand.
(§4) The positive control is the signal produced by the soluble receptor when it is allowed to react with 2,3 sLe^x glycolipid in the microtiter wells in the absence of any inhibitor. This positive control was considered 100% binding. The signal produced by the receptor that had been previously treated with an inhibitor (recorded as O.D.), was divided by the signal produced by the positive control and multiplied by 100 to calculate the % receptor bound to the well in the presence of the inhibitor. The reciprocal of this number is the % inhibition.
as §1, with “was employed” for “is preferably used”, “uses” for “employs”, “USA” for “USA.”
(§5) II. Preparation of "multivalent" receptor of the Selectin-IgG chimera was carried out by combining the respective chimera 1 μg/ml) with biotin labelled goat F(ab')2 anti-human IgG (Fc specific) and streptavidin-alkaline phosphatase diluted 1:1000 in 1% BSA-PBS (1 mM calcium) and incubating at 37° C. for 15 min. This allowed the soluble multivalent receptor complex to form.
(§6) III. Potential inhibitors such as compounds of formula I or II were allowed to react with the soluble receptor at 37° C. for 45 min. This test assumes that optimal binding, between the soluble phase receptor complex and the inhibitor (non natural ligand), would have occurred within this time frame. This solution was then placed in the microtiter wells that were prepared in step I. The plate was incubated at 37° C. for 45 minutes to allow the soluble receptor to bind to its natural ligand. In the presence of a strong inhibitor only a few receptors should be free to bind to the microtiter plate coated with the natural ligand.
(§7) The positive control is the signal produced by the soluble receptor when it is allowed to react with 2,3 sLe^x glycolipid in the microtiter wells in the absence of any inhibitor. This was considered 100% binding. […]

E-selectin = assay: ELISA: inhibition of E-selectin-IgG chimera binding to 2,3 sLe^x glycolipid; design: species or system human
From the text: as §1, §2, §3, §4
as §1, with “was employed” for “is preferably used”, “uses” for “employs”, “USA” for “USA.”
as §5, §6, §7

[2] = inhibition of binding to 2,3 sLex glycolipid

IC50 (L-selectin; [2]): 1 to 3 mM
IC50 (E-selectin; [2]): > 4 mM
SMILES: CC(=O)NC1C(O)CC(OCCCCCCOC2OC(C)C(O)C(O)C2O)(C(=O)O)OC1C(O)C(O)CO [Compound 7, 1-O-α-Neu5Ac-(6-O-α-L-Fucopyranosyl)-Hexane]
inhibited more neutrophil migration than 10 ([1]; 7 compared with 10, FIG. 7): about 30%
inhibit neutrophil migration into the peritoneum ([1]; mice, tail vein injection, 3 h after thioglycollate, FIG. 7(a) and (b)): inhibit neutrophil migration into the peritoneum
inhibition of L-selectin binding to 2,3 sLe^x glycolipid (L-selectin; FIG. 5 and FIG. 6, result in words): inhibit L-selectin binding in a concentration dependent manner
inhibition of E-selectin binding to 2,3 sLe^x glycolipid (E-selectin; FIG. 4, result in words): inhibit E-selectin binding to 2,3 sLe^x glycolipid
